{"source": "patent US20100112037A1", "about": "“S1P RECEPTOR AGONISTS FOR THE TREATMENT OF CEREBRAL MALARIA” (priority 2008, published 2010)", "key": {"[1]": {"system": "P. berghei ANKA", "assay": "Cerebral malaria model (survival of infected mice)", "format": "in vivo, C56B1/6 mice", "conditions": "FTY720 0.3 mg/kg/day by gavage, administered one day prior to malaria infection; vs control; two independent experiments, Log-Rank Test, p=0.0002; FIG. 1", "description": "A well characterized and widely used animal model of CM was used to test the efficacy of compounds. See, e.g., Golenser, supra, at 585. In each experiment, two groups of C56B1/6 mice were infected with 1 million parasites (P. berghei ANKA) i.p. in 500 μl of media. The first group was the control group, and the second was treated daily by gavage with FTY720 (0.3 mg/kg/day).\nAfter at least two doses of the drug had been administered, tail vein blood was taken from the mice, and flow cytometry analysis was used to assess the levels of B and T cells, using antibodies to CD3, CD4, CD8 and CD19. The animals were monitored daily for body weight and parasitaemia, and twice daily for survival."}, "[2]": {"assay": "Topical and transdermal administration: blood cell counts (CBC)", "format": "in vivo, F1 hybrid mice", "conditions": "topical (200 μL of 1 mg/mL solution) and transdermal patch; measured six hours after administration; FIG. 2", "description": "Drug-in-adhesive transdermal patches containing FTY720 were made by dissolving FTY720 in adhesive (Duro-Tak 87-2196, National Starch & Chemical Co.) at a ratio of 1 part compound to 10 parts adhesive (weight:weight). Adhesive containing FTY720 was layered onto a release liner (Scotchpak 1022 PET Film, 3M Corporation) using a Bird applicator with a 50 to 200 micron gap. Organic solvents were removed from the film by baking at 100° C. for 15 minutes. The dried adhesive was then laminated onto a backing membrane (CoTran 9720 polyethylene film, 3M Corporation).\nTopical and transdermal dosage forms of FTY720 were administered to F1 hybrid mice (n=5 mice per group). The blood of the mice was collected at various time points for CBC and PK analysis.\nTopical dosing of FTY720 was achieved using 200 μL of a 1 mg/mL solution composed of 70% ethanol, 29.9% water, and 0.1% DMSO.\nTransdermal dosing was achieved using patches made as described above. Patches were cut from the laminate and applied to bare skin above the front shoulder of the mice. Dosage was controlled by adjusting the thickness of the compound/adhesive applied to the release liner and number or size of patches. Fur was trimmed from the site of application and then shaved to expose bare skin. To improve adhesion, the skin was further prepped by swabbing with 70% ethanol and then allowed to air dry prior to placing the patch."}}}
{"compound": "CCCCCCCCc1ccc(CCC(N)(CO)CO)cc1", "note": "[FTY720, 2-amino-2-[2-(4-octylphenyl)ethyl]propane-1,3-diol]", "values": [{"measurement": "survival", "setting": "[1]", "result": "significant survival advantage"}, {"measurement": "lymphocyte count", "setting": "[2]", "result": "affected"}, {"measurement": "neutrophil count", "setting": "[2]", "result": "affected"}, {"measurement": "white blood cell count", "setting": "[2]", "result": "affected"}]}
